Non-standard residues stand in square brackets, D forms with d. Residues, ends and D or L forms follow the SMILES beside them. *: point of attachment. Myristoyl = CCCCCCCCCCCCCC(=O)*; Octanoyl = CCCCCCCC(=O)*
Tests used:
[1] = Stability of conjugates in Simulated Gastric Fluid (SGF); type: in vitro ADME; details: simulated gastric fluid pH 1.6 with pepsin, 1 μM, 37° C.
Procedure: Assay 1. Stability of conjugates in Simulated Gastric Fluid (SGF). This assay was used to assess the stability of a conjugate in a stomach. Medium was prepared by dissolving 2 g of sodium chloride in 0.6 L in ultrapure water (MilliQ®, Millipore Sigma, Darmstadt, Germany). The pH was adjusted to 1.6 with 1N hydrochloric acid, and the volume was then adjusted to 1 L with purified water. 60 mg FaSSIF powder (Biorelevant™, London, UK) were dissolved in 500 mL buffer (above). Pepsin was added (0.1 mg/mL) (Millipore Sigma, Darmstadt, Germany), and the solution was stirred. The resulting SGF media were used fresh for each experiment. Test compounds were dissolved in DMSO stock to 1 mM. An aliquot of the DMSO stock solution was removed and diluted in the SGF Media in 15 mL falcon tubes to generate a total compound concentration of 1 μM. A 1 mL aliquot was immediately removed and diluted once with 1 volume of acetonitrile for T0 timepoint. The mixture was sealed and mixed at 37° C. in an incubator. Aliquots (1 mL) were removed at regular intervals and immediately quenched by the addition of 1 volume of acetonitrile. The resulting samples were analyzed by LC/MS to determine degradation rates in SGF.

E. coli BL21(DE3) = test: Cell-based assay with ClbP with LCMS, ClbP negative strain; details: 10 μM compound, 37° C., 20 h
How it was run: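 Compound (10 μM final) incubated 20 h at 37° C, aerobically, with 1:40-diluted overnight cultures of ClbP-positive E. coli or negative BL21(DE3), in duplicate, alongside uninoculated LB. Remaining parent quantified by LC-MS/MS (MRM) after acetonitrile quench, expressed as percent of media-alone.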

Row | Compound | Assay 1 (SGF) (% Remaining @ 1 hours) [1] | % Remaining in ClbP Negative Relative to Media-Only (E. coli BL21(DE3))
1 | CCCCCCCC(=O)N[C@H](CC(N)=O)C(=O)N[C@@H](CC(C)C)C(=O)OC [Example 7, Methyl octanoyl-D-asparaginyl-L-leucinate] (Octanoyl-[dN]-Leu-OMe) | C (>75% of the tested compound remaining) | + (between 25-75% compound remaining in the 20 μM WT ClbP reaction relative to the no-enzyme control)
2 | CCCCCCCC(=O)N[C@H](CCC(N)=O)C(=O)N[C@@H](C)C(=O)OC [Example 10, Methyl octanoyl-D-glutaminyl-L-alaninate] (Octanoyl-[dQ]-Ala-OMe) | C (>75% of the tested compound remaining) | + (between 25-75% compound remaining in the 20 μM WT ClbP reaction relative to the no-enzyme control)
3 | CCCCCCCC(=O)N[C@H](CC(N)=O)C(=O)N[C@H](C(=O)OC)C(C)C [Example 6, Methyl octanoyl-D-asparaginyl-L-valinate] (Octanoyl-[dN]-Val-OMe) | C (>75% of the tested compound remaining) | + (between 25-75% compound remaining in the 20 μM WT ClbP reaction relative to the no-enzyme control)
4 | CCCCCCCCCCCCCC(=O)N[C@H](CC(N)=O)C(=O)NCCCC(=O)OC [Example 20, Methyl (R)-4-(4-amino-4-oxo-2-tetradecanamidobutanamido)butanoate] | C (>75% of the tested compound remaining) | − (>75% compound remaining in the 20 μM WT ClbP reaction relative to the no-enzyme control)
5 | CCCCCCCC(=O)N[C@H](CC(N)=O)C(=O)NCCN(C)C(=O)Oc1ccc2c(C)cc(=O)oc2c1 [Example 70, 4-methyl-2-oxo-2H-chromen-7-yl (R)-(2-(4-amino-2-octanamido-4-oxobutanamido)ethyl)(methyl)carbamate] | C (>75% of the tested compound remaining) | − (>75% compound remaining in the 20 μM WT ClbP reaction relative to the no-enzyme control)
6 | CCCCCCCC(=O)N[C@H](CCC(=O)O)C(=O)N[C@@H](C)C(=O)OC [Example 9, (R)-5-(((S)-1-methoxy-1-oxopropan-2-yl)amino)-4-octanamido-5-oxopentanoic acid] (Octanoyl-[dE]-Ala-OMe) | C (>75% of the tested compound remaining) | − (>75% compound remaining in the 20 μM WT ClbP reaction relative to the no-enzyme control)
7 | CCCCCCCCCCCCCC(=O)N[C@H](CC(N)=O)C(=O)N[C@@H](C)CCC(=O)O[C@]1(CC)C(=O)OCc2c1cc1n(c2=O)Cc2c-1nc1ccc(O)cc1c2CC [Example 35, (S)-4,11-diethyl-9-hydroxy-3,14-dioxo-3,4,12,14-tetrahydro-1H-pyrano[3′,4′:6,7]indolizino[1,2-b]quinolin-4-yl (S)-4-((R)-4-amino-4-oxo-2-tetradecanamidobutanamido)pentanoate] | C (>75% of the tested compound remaining) | − (>75% compound remaining in the 20 μM WT ClbP reaction relative to the no-enzyme control)
8 | CCCCCCCC(=O)N[C@H](CCCNC(=N)N)C(=O)N[C@@H](C)C(=O)OC [Example 11, Methyl octanoyl-D-arginyl-L-alaninate] (Octanoyl-[dR]-Ala-OMe) | C (>75% of the tested compound remaining) | − (>75% compound remaining in the 20 μM WT ClbP reaction relative to the no-enzyme control)
9 | COC(=O)[C@H](C)NC(=O)[C@@H](CC(N)=O)NC(=O)[C@@H](C)c1ccc2cc(OC)ccc2c1 [Example 18, Methyl ((S)-2-(6-methoxynaphthalen-2-yl)propanoyl)-D-asparaginyl-L-alaninate] | C (>75% of the tested compound remaining) | + (between 25-75% compound remaining in the 20 μM WT ClbP reaction relative to the no-enzyme control)
10 | CCCCCCCC(=O)N[C@H](CC(N)=O)C(=O)N[C@H](C)C(=O)OC [Example 5, Methyl octanoyl-D-asparaginyl-D-alaninate] (Octanoyl-[dN]-[dA]-OMe) | C (>75% of the tested compound remaining) | − (>75% compound remaining in the 20 μM WT ClbP reaction relative to the no-enzyme control)
11 | CCCCCCCCCCCCCC(=O)N[C@H](CC(N)=O)C(=O)Nc1ccc(COC)cc1 [Example 22, (R)—N1-(4-(methoxymethyl)phenyl)-2-tetradecanamidosuccinamide] | C (>75% of the tested compound remaining) | − (>75% compound remaining in the 20 μM WT ClbP reaction relative to the no-enzyme control)
12 | CCCCCCCC(=O)N[C@H](CC(N)=O)C(=O)N[C@@H](C)C(=O)OC [Example 2, Methyl octanoyl-D-asparaginyl-L-alaninate] (Octanoyl-[dN]-Ala-OMe) | C (>75% of the tested compound remaining) | + (between 25-75% compound remaining in the 20 μM WT ClbP reaction relative to the no-enzyme control)
13 | CCCCCCCCCCCCCC(=O)N[C@H](CC(N)=O)C(=O)N[C@@H](C)CCC(=O)OC [Example 21, Methyl (S)-4-((R)-4-amino-4-oxo-2-tetradecanamidobutanamido)pentanoate] | C (>75% of the tested compound remaining) | − (>75% compound remaining in the 20 μM WT ClbP reaction relative to the no-enzyme control)
14 | CCCCCCCCCCCCCC(=O)N[C@H](CC(N)=O)C(=O)N[C@@H](C)C(=O)OC [Example 1, Methyl tetradecanoyl-D-asparaginyl-L-alaninate] (Myristoyl-[dN]-Ala-OMe) | C (>75% of the tested compound remaining) | + (between 25-75% compound remaining in the 20 μM WT ClbP reaction relative to the no-enzyme control)
15 | CCCCCCCC(=O)N[C@@H](CC(N)=O)C(=O)N[C@@H](C)C(=O)OC [Example 4, Methyl octanoyl-L-asparaginyl-L-alaninate] (Octanoyl-Asn-Ala-OMe) | C (>75% of the tested compound remaining) | ++ (<25% compound remaining in the 20 μM WT ClbP reaction relative to the control)
